Experimental data reported in US6096744A, “Sulfonamide derivatives of substituted quinoxaline 2,3-diones as glutamate receptor antagonists” (Warner-Lambert Company, priority 1998, dated 2000).
pIC50: −log10 of the molar value.

Key:
AMPA receptors = test: AMPA receptor binding affinity (Honore et al.)
[1] = target: kainate site (non-NMDA receptor); test: kainate site (non-NMDA receptor) binding affinity (London and Coyle)
[2] = target: T1, glycine site of the NMDA receptor (Rattus norvegicus, UniProt P35439); test: binding affinity for the glycine site of the NMDA receptor (Jones et al.)
T1 construct: from tissue

Cc1c([N+](=O)[O-])cc2[nH]c(=O)c(=O)[nH]c2c1CN(C)S(C)(=O)=O [Compound 1, N-Methyl-N-(6-methyl-7-nitro-2,3-dioxo-1,2,3,4-tetrahydro-quinoxalin-5-ylmethyl)-methanesulfonamide]
pIC50 (AMPA receptors): 6.68 | IC50 KA [1]: 290 nM | pIC50 [2]: 7.00

Cc1ccc(S(=O)(=O)N(C)Cc2c(C)c([N+](=O)[O-])cc3[nH]c(=O)c(=O)[nH]c23)cc1 [Compound 2, 4,N-Dimethyl-N-(6-methyl-7-nitro-2,3-dioxo-1,2,3,4-tetrahydro-quinoxalin-5-ylmethyl)-benzenesulfonamide]
pIC50 (AMPA receptors): 6.25 | IC50 KA [1]: 2630 nM | pIC50 [2]: < 6.00

Cc1c([N+](=O)[O-])cc2[nH]c(=O)c(=O)[nH]c2c1CN(C)S(=O)(=O)c1c(C(C)C)cc(C(C)C)cc1C(C)C [Compound 3, 2,4,6-Triisopropyl-N-methyl-N-(6-methyl-7-nitro-2,3-dioxo-1,2,3,4-tetrahydro-quinoxalin-5-ylmethyl)-benzenesulfonamide]
pIC50 (AMPA receptors): 5.59 | IC50 KA [1]: 4770 nM | pIC50 [2]: < 6.00

Cc1c([N+](=O)[O-])cc2[nH]c(=O)c(=O)[nH]c2c1CN(C)S(=O)(=O)c1ccc2ccccc2c1 [Compound 4, Naphthalene-2-sulfonic acid methyl-(6-methyl-7-nitro-2,3-dioxo-1,2,3,4-tetrahydro-quinoxalin-5-ylmethyl)-amide]
pIC50 (AMPA receptors): 4.74 | IC50 KA [1]: 26000 nM | pIC50 [2]: < 6.00
